Data on 43 compounds can be found in patent US6887873B2, “Triazine derivatives and their application as antitelomerase agents” (Aventis Pharma S.A., priority 2001, dated 2005).

Data set [1] relates to G-quadruplex of oligonucleotide GGGTTAGGGTTAGGGTTAGGG (3.5 repeats of the human telomereic motif). Description: G-quadruplex stabilizing activity, fluorescence Tm (FAM+DABCYL oligonucleotide). The format is binding. An outline of the steps: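 FAM/DABCYL-labelled telomeric oligonucleotide (0.2 μM strand) in 10 mM sodium cacodylate pH 7.6 with 0.1 M LiCl (or NaCl) was annealed, then incubated ≥1 h at 20 °C with compound at 1 μM final. Samples were heated 20→80 °C, with excitation at 470 nm and emission at 515/588 nm. Tm is the 515 nm emission midpoint.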

Each structure is given as a SMILES string.

In the case of `Cc1cc(N(C)C)c2cc(Nc3nc(NCCCN(C)C)nc(Nc4ccc5nc(C)cc(N(C)C)c5c4)n3)ccc2n1` [Example 1, 2,4-bis(4-dimethylamino-2-methylquinolin-6-yl)amino-6-(3-dimethylaminopropyl)amino-[1,3,5]triazine], the “G4 delta Tm” value in data set [1] came to 11.3 °C. Take `Cc1cc(N)c2cc(Nc3nc(Nc4ccc5nc(C)cc(N)c5c4)nc(Nc4ccc5nc(C)cc(N)c5c4)n3)ccc2n1` [Example 2, 2,4,6-tris(4-amino-2-methylquinolin-6-yl)amino-[1,3,5]triazine]: in data set [1], the “G4 delta Tm” value turned out to be 18 °C. On the same count and under the same terms, as for `Cc1cc(N)c2cc(Nc3nc(Nc4ccc5nc(C)cc(N(C)C)c5c4)nc(Nc4ccccc4Cl)n3)ccc2n1` [Example 3], the figure is 5.5 °C. The same measure, in the same setting: the value for `Cc1cc(N)c2cc(Nc3nc(Nc4ccc(N5CCNCC5)cc4)nc(Nc4ccc5nc(C)cc(N)c5c4)n3)ccc2n1` [Example 15] was 2.7 °C; that for `Cc1cc(N)c2cc(Nc3nc(Nc4ccc5nc(C)cc(N)c5c4)nc(NC4CN5CCC4CC5)n3)ccc2n1` (centres unmarked) [Example 17, 2,4-bis(4-amino-2-methylquinolin-6-yl)amino-6-(quinuclidin-3-yl)amino-[1,3,5]triazine] was 17.1 °C. For the compound `Cc1cc(N(C)C)c2cc(Nc3nc(Nc4ccncc4)nc(Nc4ccc5nc(C)cc(N(C)C)c5c4)n3)ccc2n1` [Example 18], the “G4 delta Tm” value in data set [1] is 2.4 °C. Same read-out and setting: the value for `Cc1cc(N(C)C)c2cc(Nc3nc(Nc4ccc5nc(C)cc(N(C)C)c5c4)nc(C4CCN(C)CC4)n3)ccc2n1` [Example 19, 2,4-bis(4-dimethylamino-2-methylquinolin-6-yl)amino-6-(1-methylpiperidin-4-yl)-[1,3,5]triazine] was 3.5 °C. The melting point is the temperature, or range, at which the solid turns liquid. `Cc1cc(N(C)C)c2cc(Nc3nc(Nc4ccc5nc(C)cc(N(C)C)c5c4)nc(N4CCN(C)CC4)n3)ccc2n1` [Example 20, 2,4-bis(4-dimethylamino-2-methylquinolin-6-yl)amino-6-(4-methylpiperazin-1-yl)-[1,3,5]triazine] yielded a melting point of 256 to 260 °C. Also, the “G4 delta Tm” value in data set [1] is 6.4 °C.

On to `Cc1cc(N(C)C)c2cc(Nc3nc(NCc4ccncc4)nc(Nc4ccc5nc(C)cc(N(C)C)c5c4)n3)ccc2n1` [Example 27, 2,4-bis(4-dimethylamino-2-methylquinolin-6-yl)amino-6-(pyridin-4-yl)methylamino-[1,3,5]triazine], for which the “G4 delta Tm” value in data set [1] is 11.0 °C. With `CCN(CCNc1nc(Nc2ccc3nc(C)cc(N(C)C)c3c2)nc(Nc2ccc3nc(C)cc(N(C)C)c3c2)n1)c1cccc(C)c1` [Example 28], in data set [1], the “G4 delta Tm” value was determined as 10.6 °C. Take `Cc1cc(N)c2cc(Nc3nc(Nc4ccc5nc(C)cc(N)c5c4)nc(NC4CCN(Cc5ccccc5)C4)n3)ccc2n1` (centres unmarked) [Example 41]: the “G4 delta Tm” value in data set [1] turned out to be 19 °C. On the same count and under the same terms, the value for `Cc1cc(N)c2cc(Nc3nc(Nc4ccc5nc(C)cc(N)c5c4)nc(N4CCN(C5CCCC5)CC4)n3)ccc2n1` [Example 43] was 18 °C; that for `Cc1cc(N)c2cc(Nc3nc(NCc4ccc([N+](C)(C)C)cc4)nc(Nc4ccc5nc(C)cc(N)c5c4)n3)ccc2n1` [Example 60] was 6 °C. As to `Cc1cc(N)c2cc(Nc3nc(Nc4ccc5nc(C)cc(N)c5c4)nc(N4CCN(C(=O)c5ccco5)CC4)n3)ccc2n1` [Example 68], the “G4 delta Tm” value in data set [1] was found to be 8 °C. Regarding `Cc1cc(N)c2cc(Nc3nc(Nc4ccc5nc(C)cc(N)c5c4)nc(N4CCN(C5CCCCCCC5)CC4)n3)ccc2n1` [Example 77], the “G4 delta Tm” value in data set [1] stood at 12.5 °C. As to `Cc1cc(N)c2cc(Nc3nc(Nc4ccc5nc(C)cc(N)c5c4)nc(N4CCCC4c4cccnc4)n3)ccc2n1` (centres unmarked) [Example 86], the “G4 delta Tm” value in data set [1] amounted to 6 °C. Take `Cc1cc(N)c2cc(Nc3nc(Nc4ccc5nc(C)cc(N)c5c4)nc(N(Cc4ccccc4)C4CN5CCC4CC5)n3)ccc2n1` (centres unmarked) [Example 92]: the “G4 delta Tm” value in data set [1] was determined as 3.5 °C. With `Cc1cc(N)c2cc(Nc3nc(Nc4ccc5nc(C)cc(N)c5c4)nc(NC4CCN(Cc5ccccc5)CC4)n3)ccc2n1` [Example 93], the “G4 delta Tm” value in data set [1] was 8 °C. Same read-out and setting: the value for `Cc1cc(N)c2cc(Nc3nc(Nc4ccc5nc(C)cc(N)c5c4)nc(Oc4ccccc4Cl)n3)ccc2n1` [Example 103] was 7 °C.

Regarding `COc1cccc(Oc2nc(Nc3ccc4nc(C)cc(N)c4c3)nc(Nc3ccc4nc(C)cc(N)c4c3)n2)c1` [Example 104], in data set [1], the “G4 delta Tm” value turned out to be 4.5 °C. As to `Cc1cc(N)c2cc(Nc3nc(Nc4ccc5nc(C)cc(N)c5c4)nc(OCCN(C)Cc4ccccc4)n3)ccc2n1` [Example 105], the “G4 delta Tm” value in data set [1] was 12 °C. Take `Cc1cc(N(C)C)c2cc(Nc3nc(Nc4ccc5nc(C)cc(N(C)C)c5c4)nc(Oc4ccncc4)n3)ccc2n1` [Example 115, 2,4-bis(4-dimethylamino-2-methylquinolin-6-yl)amino-6-(pyridin-4-yl)oxy-[1,3,5]triazine]: the “G4 delta Tm” value in data set [1] was found to be 13 °C. Same read-out and setting: the value for `Cc1cc(N)c2cc(Nc3nc(Nc4ccc5nc(C)cc(N)c5c4)nc(Sc4ccccc4Cl)n3)ccc2n1` [Example 118] was 3.5 °C.

As for `Cc1cc(N)c2cc(Nc3nc(Nc4ccc5nc(C)cc(N)c5c4)nc(Sc4ccccn4)n3)ccc2n1` [Example 120], the “G4 delta Tm” value in data set [1] came out at 11.5 °C. `COc1ccc(CSc2nc(Nc3ccc4nc(C)cc(N)c4c3)nc(Nc3ccc4nc(C)cc(N)c4c3)n2)cc1` [Example 124]: the “G4 delta Tm” value in data set [1] was 3 °C. The same measure, in the same setting: the value for `Cc1cc(N)c2cc(Nc3nc(Nc4ccc5nc(C)cc(N)c5c4)nc(Sc4ncccn4)n3)ccc2n1` [Example 126] was 19 °C; that for `Cc1cc(C)nc(Sc2nc(Nc3ccc4nc(C)cc(N)c4c3)nc(Nc3ccc4nc(C)cc(N)c4c3)n2)n1` [Example 127] was 14 °C; that for `Cc1cc(N)c2cc(Nc3nc(Nc4ccc5nc(C)cc(N)c5c4)nc(Sc4ccc5ccccc5n4)n3)ccc2n1` [Example 128, 2,4-bis(4-amino-2-methylquinolin-6-yl)amino-6-(quinolin-2-yl)thio-[1,3,5]triazine] was 15 °C.

As to `Cc1cc(N(C)C)c2cc(Nc3nc(Nc4ccc5nc(C)cc(N(C)C)c5c4)nc(N4CCCN(C)CC4)n3)ccc2n1` [Example 135, 2,4-bis(4-dimethylamino-2-methylquinolin-6-yl)amino-6-(1-methylhomopiperazin-4-yl)-[1,3,5]triazine], the “G4 delta Tm” value in data set [1] worked out at 20 °C. The same measure, in the same setting: the value for `Cc1cc(N(C)C)c2cc(Nc3nc(Nc4ccc5nc(C)cc(N(C)C)c5c4)nc(N4CCN(CCCN(C)C)CC4)n3)ccc2n1` [Example 136, 2,4-bis(4-dimethylamino-2-methylquinolin-6-yl)amino-6-[1-(3-dimethylaminopropyl)piperazin-4-yl]-[1,3,5]triazine] was 20.5 °C; that for `CCCN(CCC)CCN1CCN(c2nc(Nc3ccc4nc(C)cc(N(C)C)c4c3)nc(Nc3ccc4nc(C)cc(N(C)C)c4c3)n2)CC1` [Example 137, 2,4-bis(4-dimethylamino-2-methylquinolin-6-yl)amino-6-[1-(2-dipropylaminoethyl)piperazin-4-yl]-[1,3,5]triazine] was 16 °C; that for `Cc1cc(N(C)C)c2cc(Nc3nc(Nc4ccc5nc(C)cc(N(C)C)c5c4)nc(N(C)C4CCN(C)CC4)n3)ccc2n1` [Example 138, 2,4-bis(4-dimethylamino-2-methylquinolin-6-yl)amino-6-[N-(1-methylpiperidin-4-yl)-N-methylamino]-[1,3,5]triazine] was 16 °C.

As for `Cc1cc(N(C)C)c2cc(Nc3nc(Nc4ccc5nc(C)cc(N(C)C)c5c4)nc(N4CCCN(CCCN5CCCC5)CC4)n3)ccc2n1` [Example 139], in data set [1], the “G4 delta Tm” value is 18.5 °C.

As to `Cc1cc(N(C)C)c2cc(Nc3nc(NCCN4CCN(Cc5ccccc5)CC4)nc(Nc4ccc5nc(C)cc(N(C)C)c5c4)n3)ccc2n1` [Example 140], the “G4 delta Tm” value in data set [1] was determined as 5.5 °C. As to `Cc1cc(N(C)C)c2cc(Nc3nc(Nc4ccc5nc(C)cc(N(C)C)c5c4)nc(N4CCN(CCOCCO)CC4)n3)ccc2n1` [Example 141, 2,4-bis(4-dimethylamino-2-methylquinolin-6-yl)amino-6-{[1-2-(2-hydroxyethyl)oxyethyl]piperazin-4-yl}-[1,3,5]triazine], the “G4 delta Tm” value in data set [1] was 7 °C.

As for `Cc1cc(N(C)C)c2cc(Nc3nc(NCC[N+](C)(C)C)nc(Nc4ccc5nc(C)cc(N(C)C)c5c4)n3)ccc2n1` [Example 142], in data set [1], the “G4 delta Tm” value is 9.5 °C.

On to `Cc1cc(N(C)C)c2cc(Nc3nc(Nc4ccc5nc(C)cc(N(C)C)c5c4)nc(N4CCN(C5CCCC5)CC4)n3)ccc2n1` [Example 143], for which the “G4 delta Tm” value in data set [1] worked out at 13 °C. Still for that read-out and setting: as for `Cc1cc(N(C)C)c2cc(Nc3nc(Nc4ccc5nc(C)cc(N(C)C)c5c4)nc(N4CCN(c5ccncc5)CC4)n3)ccc2n1` [Example 144, 2,4-bis(4-dimethylamino-2-methylquinolin-6-yl)amino-6-[1-(pyridin-4-yl)piperazin-4-yl]-[1,3,5]triazine], the figure is 22.5 °C; as for `Cc1cc(N(C)C)c2cc(Nc3nc(NCc4ccncc4)nc(Nc4ccc5nc(C)cc(N(C)C)c5c4)n3)ccc2n1` [Example 145], 5 °C. As for `CCN(CCN(C)C)c1nc(Nc2ccc3nc(C)cc(N(C)C)c3c2)nc(Nc2ccc3nc(C)cc(N(C)C)c3c2)n1` [Example 146], in data set [1], the “G4 delta Tm” value is 6 °C. For `CC1=NCCN1c1nc(Nc2ccc3nc(C)cc(N(C)C)c3c2)nc(Nc2ccc3nc(C)cc(N(C)C)c3c2)n1` [Example 148], the “G4 delta Tm” value in data set [1] was found to be 12 °C. For the compound `Cc1cc(N(C)C)c2cc(Nc3nc(Nc4ccc5nc(C)cc(N(C)C)c5c4)nc(N4CCC[C@H]4CN4CCCC4)n3)ccc2n1` [Example 149, 2,4-bis(4-dimethylamino-2-methylquinolin-6-yl)amino-6-[2(S)-(pyrrolidin-1-yl)methylpyrrolidin-1-yl]-[1,3,5]triazine], the “G4 delta Tm” value in data set [1] came out at 12.5 °C. Turning to `CC(=O)NCCNc1nc(Nc2ccc3nc(C)cc(N(C)C)c3c2)nc(Nc2ccc3nc(C)cc(N(C)C)c3c2)n1` [Example 150], in data set [1], the “G4 delta Tm” value came to 6.5 °C.
